The text below walks through data of patent publication US20250171459A1, “2-METHYL-4',5'-DIHYDROSPIRO[PIPERIDINE-4,7'-THIENO[2,3-C]PYRAN] DERIVATIVES AS INHIBITORS OF APOL1 AND METHODS OF USING SAME” (Vertex Pharmaceuticals Incorporated, priority 2022, published 2025).

For this assay, the target named is T1, APOL1 (Homo sapiens, UniProt O14791).
T1 sequence (O14791 1-398 S342G/I384M): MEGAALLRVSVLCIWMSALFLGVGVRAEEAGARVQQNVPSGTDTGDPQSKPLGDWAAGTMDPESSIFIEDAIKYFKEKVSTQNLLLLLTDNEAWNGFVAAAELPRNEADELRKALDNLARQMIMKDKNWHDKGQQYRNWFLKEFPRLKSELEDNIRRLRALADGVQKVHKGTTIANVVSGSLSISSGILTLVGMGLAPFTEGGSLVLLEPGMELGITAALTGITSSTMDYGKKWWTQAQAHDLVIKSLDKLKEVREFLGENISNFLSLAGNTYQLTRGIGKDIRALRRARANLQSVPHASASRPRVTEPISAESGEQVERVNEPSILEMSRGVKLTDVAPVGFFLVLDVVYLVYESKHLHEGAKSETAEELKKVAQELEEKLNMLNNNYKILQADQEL
The assay is described as follows: MultiTox-Fluor Multiplex Cytotoxicity Assay in tet-inducible APOL1 T-REx-HEK293 cells (cell rescue, ratio of dead to live cells). To be noted: tet-inducible transgenic APOL1 T-REx-HEK293 cell lines, 50 ng/mL tet, 24 hours; read-out: IP50 (i.e., IC50 for cell proliferation). The format is cell-based. An outline of the steps:
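T-REx-HEK293 cells with tet-inducible APOL1 were treated with compound (10 μM top, 10-point 3-fold dilution, duplicate) plus 50 ng/mL tetracycline for 24 h at 37° C, in DMEM with 2% tet-free FBS. MultiTox-Fluor protease signals gave a dead/live ratio, normalized to no tet (100% viability) and tet alone (0%).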
For `CCc1cc2c(s1)CCO[C@@]21CCN(CC2CNC2)[C@@H](C)C1` [Compound 421, (2′S,4R)-1′-(azetidin-3-ylmethyl)-2-ethyl-2′-methyl-spiro[6,7-dihydrothieno[3,2-c]pyran-4,4′-piperidine]], the IC50 was in the range of 500 to 1000 nM. For the compound `CCc1cc2c(s1)CCO[C@@]21CCN(CC2CN(C(=O)c3nonc3N)C2)[C@@H](C)C1` [Compound 422, (4-amino-1,2,5-oxadiazol-3-yl)-[3-[[(2′S,4R)-2-ethyl-2′-methyl-spiro[6,7-dihydrothieno[3,2-c]pyran-4,4′-piperidine]-1′-yl]methyl]azetidin-1-yl]methanone], the IC50 was < 100 nM. On to `CCc1cc2c(s1)CCO[C@@]21CCN(CC2CN(C(=O)c3ncccc3O)C2)[C@@H](C)C1` [Compound 423, [3-[[(2′S,4R)-2-ethyl-2′-methyl-spiro[6,7-dihydrothieno[3,2-c]pyran-4,4′-piperidine]-1′-yl]methyl]azetidin-1-yl]-(3-hydroxy-2-pyridyl)methanone], for which the IC50 was < 100 nM. Regarding `CCc1cc2c(s1)CCO[C@@]21CCN(CC2CN(C(=O)OC)C2)[C@@H](C)C1` [Compound 424, methyl 3-[[(2′S,4R)-2-ethyl-2′-methyl-spiro[6,7-dihydrothieno[3,2-c]pyran-4,4′-piperidine]-1′-yl]methyl]azetidine-1-carboxylate], the IC50 was in the range of 500 to 1000 nM.

Consider `CCc1cc2c(s1)CCO[C@@]21CCN(CC2CN(C(=O)c3ccon3)C2)[C@@H](C)C1` [Compound 425], for which the IC50 is < 100 nM. Consider `CCc1cc2c(s1)CCO[C@@]21CCN(CC2CN(C(=O)c3nonc3C)C2)[C@@H](C)C1` [Compound 426], for which the IC50 is < 100 nM. Consider `CCc1cc2c(s1)CCO[C@@]21CCN(CC2CN(C(=O)c3ccnn3C)C2)[C@@H](C)C1` [Compound 427], for which the IC50 is < 100 nM. For the compound `CCc1cc2c(s1)CCO[C@@]21CCN(CC2CN(C(=O)c3cccc(CO)c3)C2)[C@@H](C)C1` [Compound 428], the IC50 is < 100 nM. For `CCc1cc2c(s1)CCO[C@@]21CCN(CC2CN(C(=O)c3cnn(C)c3)C2)[C@@H](C)C1` [Compound 429], the IC50 was < 100 nM. Consider `CCc1cc2c(s1)CCO[C@@]21CCN(CC2CN(C(=O)c3ccncc3)C2)[C@@H](C)C1` [Compound 430], for which the IC50 is < 100 nM. In the case of `CCc1cc2c(s1)CCO[C@@]21CCN(CC2CN(C(=O)c3ccccc3)C2)[C@@H](C)C1` [Compound 431], the IC50 is < 100 nM.

With `CCc1cc2c(s1)CCO[C@@]21CCN(CC2CN(C(=O)C(C)S(C)(=O)=O)C2)[C@@H](C)C1` (stereo partly shown) [Compound 432], the IC50 is < 100 nM. Regarding `CCc1cc2c(s1)CCO[C@@]21CCN(CC2CN(C(=O)c3cn[nH]c3)C2)[C@@H](C)C1` [Compound 433], the IC50 is < 100 nM.

Take `CCc1cc2c(s1)CCO[C@@]21CCN(CC2CN(C(=O)CCC3CCCC3)C2)[C@@H](C)C1` [Compound 434]: the IC50 was < 100 nM. Consider `CCc1cc2c(s1)CCO[C@@]21CCN(CC2CN(C(=O)CCCS(C)(=O)=O)C2)[C@@H](C)C1` [Compound 435], for which the IC50 was < 100 nM.

As for `CCc1cc2c(s1)CCO[C@@]21CCN(CC2CN(C(=O)COC)C2)[C@@H](C)C1` [Compound 436], the IC50 was < 100 nM.

Take `CCc1cc2c(s1)CCO[C@@]21CCN(CC2CN(C(=O)C3(O)CCOCC3)C2)[C@@H](C)C1` [Compound 437]: the IC50 is < 100 nM.

For `CCc1cc2c(s1)CCO[C@@]21CCN(CC2CN(C(=O)Cc3ccncc3)C2)[C@@H](C)C1` [Compound 438], the IC50 was < 100 nM. The value for `CCc1cc2c(s1)CCO[C@@]21CCN(CC2CN(C(=O)CCCOC)C2)[C@@H](C)C1` [Compound 439] was < 100 nM; that for `CCc1cc2c(s1)CCO[C@@]21CCN(CC2CN(C(=O)C3COCCO3)C2)[C@@H](C)C1` (stereo partly shown) [Compound 440] was < 100 nM. For `CCc1cc2c(s1)CCO[C@@]21CCN(CC2CN(C(=O)Cc3ccncn3)C2)[C@@H](C)C1` [Compound 441], the IC50 was < 100 nM. Take `CCc1cc2c(s1)CCO[C@@]21CCN(CC2CN(C(=O)COC(C)(C)C)C2)[C@@H](C)C1` [Compound 442]: the IC50 is < 100 nM. Consider `CCc1cc2c(s1)CCO[C@@]21CCN(CC2CN(C(=O)C(C)(C)O)C2)[C@@H](C)C1` [Compound 443], for which the IC50 is < 100 nM. Consider `CCc1cc2c(s1)CCO[C@@]21CCN(CC2CN(C(=O)CC3CCS(=O)(=O)CC3)C2)[C@@H](C)C1` [Compound 444], for which the IC50 was < 100 nM. In the case of `CCc1cc2c(s1)CCO[C@@]21CCN(CC2CN(C(=O)CN3CCS(=O)(=O)CC3)C2)[C@@H](C)C1` [Compound 445], the IC50 is < 100 nM. To `CCc1cc2c(s1)CCO[C@@]21CCN(CC2CN(C(=O)C3CCS(=O)(=O)N3)C2)[C@@H](C)C1` (stereo partly shown) [Compound 446] belongs < 100 nM; to `CCc1cc2c(s1)CCO[C@@]21CCN(CC2CN(C(=O)CCO)C2)[C@@H](C)C1` [Compound 447], 100 to 500 nM; to `CCc1cc2c(s1)CCO[C@@]21CCN(CC2CN(C(=O)C3CCCCC3)C2)[C@@H](C)C1` [Compound 448], 100 to 500 nM.

Regarding `CCc1cc2c(s1)CCO[C@@]21CCN(CC2CN(C(=O)CS(C)(=O)=O)C2)[C@@H](C)C1` [Compound 449], the IC50 was 100 to 500 nM. Take `CCc1cc2c(s1)CCO[C@@]21CCN(CC2CN(C(=O)CC3CS(=O)(=O)C3)C2)[C@@H](C)C1` [Compound 450]: the IC50 was in the range of 100 to 500 nM.

In the case of `CCc1cc2c(s1)CCO[C@@]21CCN(CC2CN(C(=O)C3C4COCC43)C2)[C@@H](C)C1` (stereo partly shown) [Compound 451], the IC50 lay within 100 to 500 nM.

On to `CCc1cc2c(s1)CCO[C@@]21CCN(CC2CN(C(=O)CO)C2)[C@@H](C)C1` [Compound 452], for which the IC50 was in the range of 100 to 500 nM. As for `CCc1cc2c(s1)CCO[C@@]21CCN(CC2CN(C(=O)CCS(N)(=O)=O)C2)[C@@H](C)C1` [Compound 453], the IC50 fell in the range of 100 to 500 nM.

Take `CCc1cc2c(s1)CCO[C@@]21CCN(CC2CN(C(=O)CCS(C)(=O)=O)C2)[C@@H](C)C1` [Compound 454]: the IC50 lay in the range of 100 to 500 nM. As to `CCc1cc2c(s1)CCO[C@@]21CCN(CC2CN(C(=O)Cc3cnn(C)c3)C2)[C@@H](C)C1` [Compound 455], the IC50 was 100 to 500 nM. The value for `CCc1cc2c(s1)CCO[C@@]21CCN(CC2CN(C(=O)CS(=O)(=O)c3ccccc3)C2)[C@@H](C)C1` [Compound 456] was 100 to 500 nM. For the compound `CCc1cc2c(s1)CCO[C@@]21CCN(CC2CN(C(=O)C(C)(C)C)C2)[C@@H](C)C1` [Compound 457], the IC50 lay in the range of 500 to 1000 nM. Take `CCc1cc2c(s1)CCO[C@@]21CCN(CC2CN(C(=O)c3cnc(C#N)nc3)C2)[C@@H](C)C1` [Compound 458]: the IC50 was in the range of 100 to 500 nM. For `CCc1cc2c(s1)CCO[C@@]21CCN(CC2CN(C(=O)CS(=O)(=O)CC)C2)[C@@H](C)C1` [Compound 459], the IC50 was < 100 nM. Turning to `CCc1cc2c(s1)CCO[C@@]21CCN(CC2CN(C(=O)c3c[nH]c(C(F)(F)F)n3)C2)[C@@H](C)C1` [Compound 460], the IC50 is < 100 nM. Take `CCc1cc2c(s1)CCO[C@@]21CCN(CC2CN(C(=O)c3cc(C(F)F)[nH]n3)C2)[C@@H](C)C1` [Compound 461]: the IC50 was < 100 nM. Regarding `CCc1cc2c(s1)CCO[C@@]21CCN(CC2CN(C(=O)c3cc(C(F)(F)F)n[nH]3)C2)[C@@H](C)C1` [Compound 462], the IC50 is < 100 nM. For the compound `CCc1cc2c(s1)CCO[C@@]21CCN(CC2CN(C(=O)c3ccc(=O)oc3)C2)[C@@H](C)C1` [Compound 463], the IC50 was in the range of 100 to 500 nM. Consider `CCc1cc2c(s1)CCO[C@@]21CCN(CC2CN(C(=O)Cn3cnnn3)C2)[C@@H](C)C1` [Compound 464], for which the IC50 is < 100 nM. Turning to `CCc1cc2c(s1)CCO[C@@]21CCN(CC2CN(C(=O)CC3CCS(=O)(=O)C3)C2)[C@@H](C)C1` (stereo partly shown) [Compound 465], the IC50 is < 100 nM. To `CCc1cc2c(s1)CCO[C@@]21CCN(CC2CN(C(=O)c3ncc(OC)o3)C2)[C@@H](C)C1` [Compound 466] belongs < 100 nM; to `CCc1cc2c(s1)CCO[C@@]21CCN(CC2CN(C(=O)[C@@H]3CSC(=O)N3)C2)[C@@H](C)C1` [Compound 467], < 100 nM. As for `CCc1cc2c(s1)CCO[C@@]21CCN(CC2CN(C(=O)c3ncc[nH]3)C2)[C@@H](C)C1` [Compound 468], the IC50 was < 100 nM. On to `CCc1cc2c(s1)CCO[C@@]21CCN(CC2CN(C(=O)c3cc[nH]n3)C2)[C@@H](C)C1` [Compound 469], for which the IC50 is < 100 nM.

`CCc1cc2c(s1)CCO[C@@]21CCN(CC2CN(C(=O)c3ncc(C)[nH]3)C2)[C@@H](C)C1` [Compound 470]: the IC50 is < 100 nM. `CCc1cc2c(s1)CCO[C@@]21CCN(CC2CN(C(=O)CCCc3c[nH]nn3)C2)[C@@H](C)C1` [Compound 471]: the IC50 is < 100 nM. For the compound `CCc1cc2c(s1)CCO[C@@]21CCN(CC2CN(C(=O)C3CC(=O)NC3=O)C2)[C@@H](C)C1` (stereo partly shown) [Compound 472], the IC50 is < 100 nM. As to `CCc1cc2c(s1)CCO[C@@]21CCN(CC2CN(C(=O)[C@@H](C)NS(C)(=O)=O)C2)[C@@H](C)C1` [Compound 473], the IC50 was in the range of 100 to 500 nM.

As for `CCc1cc2c(s1)CCO[C@@]21CCN(CC2CN(C(=O)c3ncon3)C2)[C@@H](C)C1` [Compound 474], the IC50 is < 100 nM. Consider `CCc1cc2c(s1)CCO[C@@]21CCN(CC2CN(C(=O)c3ccn(CO)n3)C2)[C@@H](C)C1` [Compound 475], for which the IC50 is < 100 nM.
